Test results from US10577308B2, “Sodium channel modulators” (The Florey Institute of Neuroscience and Mental Health, priority 2015, dated 2020).
Read-outs that look alike come from different tables or passages of the source.

Assays:
[1] = molecular target: hNav1.2 (Homo sapiens (Human), UniProt Q99250); assay: Automated patch clamp (IonWorks Quattro) block of hNav1.2 channels in CHO cells; type: cell-based
Description: (§1) FIG. 1 depicts the voltage sequence used to measure inhibitory activity of compounds as described in Example 3. An automated patch clamp screening assay was used to measure the inhibitory effect (potency) of compounds in three conformational states of the sodium channel: (1) the tonic state (TP1); (2) the frequency-dependent (10 Hz) state (TP11) and (3) the inactivated state (TP12).
(§2) Test Protocol for Determining the Potency of Compounds on Nav1.2 and Nav1.6 Subtypes of Voltage-Gated Sodium Ion Channels Expressed in Mammalian Cells
(§3) Cell culture procedures: Chinese hamster ovary (CHO) cells were stably transfected with the cDNA sequence of either the human SCN2A or SCN8A genes to create hNav1.2 or hNav1.6 cells respectively. The cell lines were cultured in Ham's F-12 medium supplemented with 10% fetal bovine serum and antibiotics in a tissue incubator at 37° C. under a humidified air/CO2 mixture (95/5 v/v). On the day of the experiment, cells were washed twice with Hank's balanced salt solution, treated with trypsin, and resuspended in fresh culture media at a density of 4−6×10^6 cells in 20 ml. Immediately before placing in the IonWorks Quattro instrument, cells were washed in Hank's balanced salt solution to remove culture medium and re-suspended in 3 ml of Hank's balanced salt solution.
(§4) Automated patch clamp recordings of cells using the IonWorks Quattro Instrument: The assay used a 384 microwell plate, which enabled 20 compounds to be studied at four different concentrations in quadruplicate as well as allowing a vehicle control group and a positive control group using mexiletine at 8 different concentrations. Cells were added to the wells of the Population Patch Clamp planar electrode using a 48-channel pipettor in a volume of 6 μL, per well. After 5 minutes incubation at ambient temperature with compounds or vehicle, membrane currents were recorded using the patch clamp amplifier. The pulse pattern was repeated twice, before and after compound addition and peak current amplitudes were measured at three test pulses, TP1, TP11 and TP12 to measure Tonic Block, 10 Hz Frequency-dependent Block and Inactivation State Block, respectively.
(§5) Data analysis: Data acquisition and analyses were carried out using the IonWorks Quattro system operation software which uses an algorithm to correct data for leak currents. Concentration-response curves were fitted by non-linear least squares regression allowing calculation of an IC50 value (μM), being the concentration of the compound producing half-maximal inhibition.

[2] = molecular target: hNav1.6 (Homo sapiens (Human), UniProt Q9UQD0); assay: Automated patch clamp (IonWorks Quattro) block of hNav1.6 channels in CHO cells; type: cell-based
Description: as §1, §2, §3, §4, §5

[3] = 10 Hz frequency-dependent block (TP11), read-out: IC50 Nav1.2 10 Hz block
[4] = Inactivated state block (TP12), read-out: IC50 Nav1.2 Inactivated state block
[5] = Tonic block (TP1), read-out: IC50 Nav1.2 Tonic block
[6] = 10 Hz frequency-dependent block (TP11), read-out: IC50 Nav1.6 10 Hz block
[7] = Inactivated state block (TP12), read-out: IC50 Nav1.6 Inactivated state block
[8] = Tonic block (TP1), read-out: IC50 Nav1.6 Tonic block

hNav1.6, sequence (Q9UQD0 whole entry): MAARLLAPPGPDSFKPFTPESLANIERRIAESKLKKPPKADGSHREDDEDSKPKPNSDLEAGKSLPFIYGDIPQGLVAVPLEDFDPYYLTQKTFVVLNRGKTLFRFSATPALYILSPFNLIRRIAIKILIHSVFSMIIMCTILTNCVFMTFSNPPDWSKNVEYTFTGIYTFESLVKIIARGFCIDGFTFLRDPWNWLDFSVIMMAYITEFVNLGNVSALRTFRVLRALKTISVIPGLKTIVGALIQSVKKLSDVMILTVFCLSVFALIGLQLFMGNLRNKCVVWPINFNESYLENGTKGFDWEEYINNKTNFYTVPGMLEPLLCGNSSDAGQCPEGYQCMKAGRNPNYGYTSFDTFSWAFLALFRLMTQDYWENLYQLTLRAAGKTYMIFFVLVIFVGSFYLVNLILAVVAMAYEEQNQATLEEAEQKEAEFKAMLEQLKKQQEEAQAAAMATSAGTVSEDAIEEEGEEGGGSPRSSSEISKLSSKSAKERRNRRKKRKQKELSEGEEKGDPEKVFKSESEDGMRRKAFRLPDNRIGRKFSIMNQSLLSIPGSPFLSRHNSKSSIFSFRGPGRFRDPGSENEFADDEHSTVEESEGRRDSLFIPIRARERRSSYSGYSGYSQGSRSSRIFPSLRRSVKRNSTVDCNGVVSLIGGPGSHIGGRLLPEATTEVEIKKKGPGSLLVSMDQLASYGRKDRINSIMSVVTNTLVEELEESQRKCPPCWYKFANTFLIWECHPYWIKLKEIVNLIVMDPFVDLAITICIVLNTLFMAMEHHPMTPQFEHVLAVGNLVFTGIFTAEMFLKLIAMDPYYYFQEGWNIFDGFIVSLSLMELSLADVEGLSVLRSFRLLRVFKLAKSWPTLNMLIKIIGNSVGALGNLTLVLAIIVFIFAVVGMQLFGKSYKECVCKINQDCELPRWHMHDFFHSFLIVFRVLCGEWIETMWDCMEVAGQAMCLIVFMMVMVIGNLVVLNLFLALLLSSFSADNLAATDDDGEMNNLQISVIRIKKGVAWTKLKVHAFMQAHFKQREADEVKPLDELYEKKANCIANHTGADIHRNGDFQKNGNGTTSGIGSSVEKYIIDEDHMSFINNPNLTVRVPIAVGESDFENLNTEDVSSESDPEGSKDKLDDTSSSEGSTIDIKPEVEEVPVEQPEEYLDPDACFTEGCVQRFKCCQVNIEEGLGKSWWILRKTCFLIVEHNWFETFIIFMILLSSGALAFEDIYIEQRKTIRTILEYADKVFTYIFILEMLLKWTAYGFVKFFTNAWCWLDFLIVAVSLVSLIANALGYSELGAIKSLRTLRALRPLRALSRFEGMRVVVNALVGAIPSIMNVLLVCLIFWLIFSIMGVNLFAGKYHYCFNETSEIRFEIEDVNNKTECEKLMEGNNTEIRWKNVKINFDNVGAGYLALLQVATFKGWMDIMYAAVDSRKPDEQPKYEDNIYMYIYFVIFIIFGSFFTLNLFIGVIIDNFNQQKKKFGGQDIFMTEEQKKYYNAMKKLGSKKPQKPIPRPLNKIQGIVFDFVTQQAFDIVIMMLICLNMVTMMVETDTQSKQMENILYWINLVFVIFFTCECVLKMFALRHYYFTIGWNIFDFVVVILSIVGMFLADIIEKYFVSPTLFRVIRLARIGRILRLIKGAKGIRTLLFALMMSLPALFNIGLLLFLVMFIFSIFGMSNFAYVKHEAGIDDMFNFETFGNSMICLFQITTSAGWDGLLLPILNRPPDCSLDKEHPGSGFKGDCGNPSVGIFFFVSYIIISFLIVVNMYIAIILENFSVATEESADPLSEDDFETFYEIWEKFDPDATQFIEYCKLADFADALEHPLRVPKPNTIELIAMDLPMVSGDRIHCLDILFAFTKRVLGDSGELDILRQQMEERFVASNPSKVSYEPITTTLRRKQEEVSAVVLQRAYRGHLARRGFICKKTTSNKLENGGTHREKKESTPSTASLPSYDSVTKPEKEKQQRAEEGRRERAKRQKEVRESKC
hNav1.2, sequence (Q99250 whole entry): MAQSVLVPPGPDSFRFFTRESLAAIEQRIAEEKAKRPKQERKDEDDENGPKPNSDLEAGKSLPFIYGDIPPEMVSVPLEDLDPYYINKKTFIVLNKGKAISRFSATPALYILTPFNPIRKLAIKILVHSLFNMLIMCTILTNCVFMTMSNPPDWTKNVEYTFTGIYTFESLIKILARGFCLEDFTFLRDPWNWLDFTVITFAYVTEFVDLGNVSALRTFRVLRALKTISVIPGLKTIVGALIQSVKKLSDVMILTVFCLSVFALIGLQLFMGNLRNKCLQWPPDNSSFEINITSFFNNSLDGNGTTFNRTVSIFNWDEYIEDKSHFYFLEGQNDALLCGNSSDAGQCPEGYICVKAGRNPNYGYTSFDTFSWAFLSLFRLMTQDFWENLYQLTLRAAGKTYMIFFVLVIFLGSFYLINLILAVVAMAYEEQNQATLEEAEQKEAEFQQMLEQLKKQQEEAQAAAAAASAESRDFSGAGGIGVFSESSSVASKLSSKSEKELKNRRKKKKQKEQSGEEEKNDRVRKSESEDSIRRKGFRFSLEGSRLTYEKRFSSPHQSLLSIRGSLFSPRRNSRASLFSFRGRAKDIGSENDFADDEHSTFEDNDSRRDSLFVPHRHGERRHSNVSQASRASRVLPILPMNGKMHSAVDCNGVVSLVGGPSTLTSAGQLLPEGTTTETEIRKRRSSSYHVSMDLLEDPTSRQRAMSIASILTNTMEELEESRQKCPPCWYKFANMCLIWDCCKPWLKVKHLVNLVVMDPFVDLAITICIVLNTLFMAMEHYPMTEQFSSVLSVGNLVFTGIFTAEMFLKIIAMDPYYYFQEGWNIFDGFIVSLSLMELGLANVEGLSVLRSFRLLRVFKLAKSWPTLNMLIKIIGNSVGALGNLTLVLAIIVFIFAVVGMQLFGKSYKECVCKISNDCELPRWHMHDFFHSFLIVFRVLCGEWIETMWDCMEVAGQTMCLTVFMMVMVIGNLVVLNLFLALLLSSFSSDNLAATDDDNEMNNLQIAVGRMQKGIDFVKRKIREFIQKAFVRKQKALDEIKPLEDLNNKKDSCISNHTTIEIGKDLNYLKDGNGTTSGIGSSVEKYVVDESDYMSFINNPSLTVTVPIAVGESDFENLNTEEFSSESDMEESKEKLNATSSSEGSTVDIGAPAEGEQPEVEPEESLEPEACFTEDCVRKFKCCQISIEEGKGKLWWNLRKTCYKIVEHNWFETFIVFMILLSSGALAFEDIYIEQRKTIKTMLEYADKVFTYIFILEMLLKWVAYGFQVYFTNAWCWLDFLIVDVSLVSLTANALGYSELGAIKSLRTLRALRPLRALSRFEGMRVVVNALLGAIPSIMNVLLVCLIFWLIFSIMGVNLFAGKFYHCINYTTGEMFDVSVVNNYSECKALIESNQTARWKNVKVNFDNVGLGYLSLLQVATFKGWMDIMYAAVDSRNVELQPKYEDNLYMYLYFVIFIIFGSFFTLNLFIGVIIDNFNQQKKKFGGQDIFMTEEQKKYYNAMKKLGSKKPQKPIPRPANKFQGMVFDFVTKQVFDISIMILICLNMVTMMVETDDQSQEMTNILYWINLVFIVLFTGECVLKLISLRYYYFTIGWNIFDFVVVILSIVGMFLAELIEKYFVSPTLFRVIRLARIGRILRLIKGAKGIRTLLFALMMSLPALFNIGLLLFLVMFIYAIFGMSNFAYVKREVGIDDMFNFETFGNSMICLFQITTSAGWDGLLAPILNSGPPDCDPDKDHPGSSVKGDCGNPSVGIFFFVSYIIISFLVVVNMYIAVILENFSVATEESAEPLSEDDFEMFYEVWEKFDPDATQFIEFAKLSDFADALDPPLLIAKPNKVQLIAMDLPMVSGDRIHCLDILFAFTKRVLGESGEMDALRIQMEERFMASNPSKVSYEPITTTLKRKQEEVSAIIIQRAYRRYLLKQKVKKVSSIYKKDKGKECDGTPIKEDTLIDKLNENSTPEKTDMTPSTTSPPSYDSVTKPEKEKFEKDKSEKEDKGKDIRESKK

IC50 [1, 3] | IC50 [1, 4] | IC50 [1, 5] | IC50 [2, 6] | IC50 [2, 7] | IC50 [2, 8] | Compound
6.1 µM | 2 µM | ~10.1 µM | 4.3 µM | 2.3 µM | 7.1 µM | 3-(2,6-Dimethylphenoxy)-N-(3-(trifluoromethyl)benzyl)propan-1-amine [Compound 533]
8.3 µM | 2.1 µM | > 10 µM | 3.4 µM | 1.8 µM | 5.6 µM | Cc1cccc(C)c1OCCCNCc1ccc(C#N)cc1 [Compound 519, 4-((3-(2,6-Dimethylphenoxy)propylamino)methyl)benzonitrile]
8.4 µM | 2.8 µM | ~10.2 µM | 2.2 µM | 1.4 µM | 4.5 µM | Cc1cccc(C)c1OCCCNCc1ccc(F)cc1 [Compound 521, 3-(2,6-Dimethylphenoxy)-N-(4-fluorobenzyl)propan-1-amine]
13.1 µM | 4.8 µM | 34.4 µM | 12.4 µM | 4.7 µM | 31.7 µM | Cc1cccc(C)c1OCCCNCc1cccnc1 [Compound 528, 3-(2,6-Dimethylphenoxy)-N-(pyridin-3-ylmethyl)propan-1-amine]
3.6 µM | 1.4 µM | 12.5 µM | 56.3 µM | 40.9 µM | 138 µM | Cc1cccc(C)c1OCCCNCc1ccc(OC(F)(F)F)cc1 [Compound 531, 3-(2,6-Dimethylphenoxy)-N-(4-(trifluoromethoxy)benzyl)propan-1-amine]
> 10 µM | 6.1 µM | > 10 µM | > 10 µM | 8.5 µM | > 10 µM | Cc1cccc(C)c1OCCCNCc1ccc(S(N)(=O)=O)cc1 [Compound 532, 4-((3-(2,6-Dimethylphenoxy)propylamino)methyl)benzenesulfonamide]
20.7 µM | 7 µM | 66.5 µM | > 1000 µM | > 1000 µM | > 1000 µM | Cc1cccc(C)c1OCCCNCc1cccc(-c2ccccc2)c1 [Compound 535, N-(Biphenyl-3-ylmethyl)-3-(2,6-dimethylphenoxy)propan-1-amine]
> 10 µM | 5 µM | > 10 µM | > 10 µM | 7.1 µM | > 10 µM | CC(=O)Nc1ccc(CNCCCOc2c(C)cccc2C)cc1 [Compound 542, N-(4-((3-(2,6-Dimethylphenoxy)propylamino)methyl)phenyl)acetamide]
8.1 µM | 2.4 µM | 9.5 µM | 1.9 µM | 1.2 µM | 3.1 µM | Cc1cccc(C)c1OCCCNCc1cccc(F)c1 [Compound 552, 3-(2,6-Dimethylphenoxy)-N-(3-fluorobenzyl)propan-1-amine]
1.2 µM | 0.2 µM | 3.6 µM | 1 µM | 0.3 µM | 1.6 µM | Cc1cccc(C)c1OCCCNC(C)c1ccccc1 (stereo not drawn) [Compound 553, 3-(2,6-Dimethylphenoxy)-N-(1-phenylethyl)propan-1-amine]
> 10 µM | 9.3 µM | > 10 µM | > 10 µM | 3.7 µM | > 10 µM | Cc1cccc(C)c1OCCCNCc1c2ccccc2nn1Cc1ccccc1 [Compound 555, N-((2-Benzyl-2H-indazol-3-yl)methyl)-3-(2,6-dimethylphenoxy)propan-1-amine]

The next lines start with the compound.

Compound | IC50 [1, 3] | IC50 [1, 4] | IC50 [1, 5] | IC50 [2, 6] | IC50 [2, 7] | IC50 [2, 8]
3-((3-(2,6-Dimethylphenoxy)propylamino)methyl)benzonitrile [Compound 524] | 9.6 µM | > 10 µM | > 10 µM | 3.9 µM | > 10 µM | 7.8 µM
Cc1cccc(C)c1OCCCNCc1cc(Cl)c(O)c(Cl)c1 [Compound 504, 2,6-Dichloro-4-((3-(2,6-dimethylphenoxy)propylamino)methyl)phenol] | > 10 µM | 4.4 µM | > 10 µM | > 10 µM | > 10 µM | > 10 µM
Cc1cccc(C)c1OCCCNCc1ccccc1 [Compound 518, N-Benzyl-3-(2,6-dimethylphenoxy)propan-1-amine] | 1.8 µM | 0.5 µM | 3.3 µM | 2.9 µM | 2 µM | 5.2 µM
COc1ccc(CNCCCOc2c(C)cccc2C)cc1 [Compound 520, 3-(2,6-Dimethylphenoxy)-N-(4-methoxybenzyl)propan-1-amine] | 2.1 µM | 1 µM | 6.3 µM | 2.6 µM | 1.5 µM | 4.9 µM
Cc1cccc(C)c1OCCCNCc1ccc(-c2ccccc2)cc1 [Compound 522, N-(Biphenyl-4-ylmethyl)-3-(2,6-dimethylphenoxy)propan-1-amine] | > 1000 µM | > 1000 µM | > 1000 µM | > 1000 µM | > 1000 µM | > 1000 µM
Cc1cccc(C)c1OCCCNCc1ccccn1 [Compound 523, 3-(2,6-Dimethylphenoxy)-N-(pyridin-2-ylmethyl)propan-1-amine] | ~10 µM | 4.2 µM | > 10 µM | 7.6 µM | 2 µM | > 10 µM
COc1cccc(CNCCCOc2c(C)cccc2C)c1 [Compound 525, 3-(2,6-Dimethylphenoxy)-N-(3-methoxybenzyl)propan-1-amine] | 1.5 µM | 0.4 µM | 4.8 µM | 3.2 µM | 1.8 µM | 7.9 µM
Cc1cccc(C)c1OCCCNCc1ccc(C(F)(F)F)cc1 [Compound 526] | 9.5 µM | 3.5 µM | > 10 µM | 4.7 µM | 2.3 µM | 6.9 µM
COc1ccccc1CNCCCOc1c(C)cccc1C [Compound 530, 3-(2,6-Dimethylphenoxy)-N-(2-methoxybenzyl)propan-1-amine] | 2.9 µM | 1.1 µM | 7.8 µM | 1.7 µM | 0.8 µM | 2.9 µM
Cc1cccc(C)c1OCCCNCc1ccccc1C(F)(F)F [Compound 534, 3-(2,6-Dimethylphenoxy)-N-(2-(trifluoromethyl)benzyl)propan-1-amine] | 7.1 µM | 2.1 µM | > 10 µM | 4.1 µM | 2.3 µM | 8.1 µM
Cc1cccc(C)c1OCCCNCc1ccccc1-c1ccccc1 [Compound 536, N-(Biphenyl-2-ylmethyl)-3-(2,6-dimethylphenoxy)propan-1-amine] | 1.7 µM | 0.4 µM | > 30 µM | 3.7 µM | 1.3 µM | 21.4 µM
Cc1cccc(C)c1OCCCNCc1noc(C(C)C)n1 [Compound 538, 3-(2,6-Dimethylphenoxy)-N-((5-isopropyl-1,2,4-oxadiazol-3-yl)methyl)propan-1-amine] | > 10 µM | ~10.2 µM | > 10 µM | > 10 µM | > 10 µM | > 10 µM
Cc1cccc(C)c1OCCCNCc1nn(Cc2ccccc2)c2ccccc12 [Compound 540, N-((1-Benzyl-1H-indazol-3-yl)methyl)-3-(2,6-dimethylphenoxy)propan-1-amine] | 2.3 µM | 1.2 µM | 23.5 µM | 142 µM | 80.5 µM | 287 µM
Cc1cccc(C)c1OCCCNCc1ccc(O)cc1 [Compound 550, 4-((3-(2,6-Dimethylphenoxy)propylamino)methyl)phenol] | 5.1 µM | 2.2 µM | > 10 µM | 4.8 µM | 2.2 µM | > 10 µM
Cc1cccc(C)c1OCCCNCc1ccccc1F [Compound 551, 3-(2,6-Dimethylphenoxy)-N-(2-fluorobenzyl)propan-1-amine] | 4.9 µM | 2.1 µM | ~10.1 µM | 2 µM | 1.1 µM | 5.6 µM
Cc1cccc(C)c1OCCCNC(c1ccccc1)c1ccccc1 [Compound 554, N-Benzhydryl-3-(2,6-dimethylphenoxy)propan-1-amine] | 32.2 µM | 1.4 µM | > 1000 µM | > 1000 µM | > 1000 µM | > 1000 µM
